Experimental data as given in patent US20180318291A1, “USE OF AMINOTHIAZOLE MYD88 SPECIFIC INHIBITOR TJM2010-5” (WUHAN INNAMUNE PHARMACEUTICAL INC. LTD., priority 2015, published 2018).

Experiments:
T cells = assay: activation of T cells (FIG. 3a); type: cell-based
GVHD mice = assay: GVHD model in irradiated BALB/c mice; type: in vivo
Description: Construction of GVHD model: Apply myeloablativetotal body irradiation (TBI, 710cGy) (HI-ENERGY PRIMV S-M X-ray source) on female BALB/c (H-2d) mice, and inject the bone marrow cell of […] of C57BL/6(B6, H-2^b) mice into it within 2 hours, and inject the B6spleen cells of […] into some of these female BALB/c (H-2d) mice at some time.
Groups: GVHD mice are divided into 4 groups, where the first group is control group, and the 8 mice in the group are provided with no post operation treatment; the second group is provided with intragastric administration of TJM2010-5 of 50 mg/kg/day since the day of irradiation; the third group is the MR1 group, in which the 8 mice are provided with the treatment of MR1 of 10 mg/kg/time on day 0, 1, 2, 3, 7 and 14 after irradiation; the forth group is the combination treatment group (TJM2010-5+MR1), in which the 8 mice are treated with TJM2010-5 and MR1 by the method mentioned above.
In case TJM2010-5 is combined with MR1, it can reverse 100% of GVHD. However, other aminothiazole compounds have no or little such curative effect.

NOD mice = assay: diabetes mellitus type I model in NOD mice; type: in vivo; conditions: 150 mg/kg/d intraperitoneal, observed 30 weeks, FIG. 4
Description: 1. Experimental groups: MyD88KO NOD mice, MyD88KO/+NOD mice, NOD mice TJM2010-5 treatment group.
2. Treatment group: Provide intraperitoneal injection of TJM2010-5 dissolved in 0.5% CMC of 150 mg/kg/d on the day before antigen injection, and on day 0 to day 3, and day 5, 7, 9, 11, 13 and 15 day after injection.
3. Provide intraperitoneal injection of mycobacterium antigen to mice in each group and monitor the concentration constantly.
4. Feed in clean level and observe for 30 weeks, and take the tail venous blood to test the non-fasting blood-glucose. The standard for diabetes modeling is obtaining the blood-glucose no less than 22 mmol/L for 2 times successively.

mice with endoxemia = assay: endoxemia lethal experiment (LPS); type: in vivo; conditions: 250 mg/kg intragastric once a day for three days, then LPS ip; FIG. 15(a)
Description: Part one: Observe the effect of MyD88 inhibitor on mortality of mice with endoxemia. The mice will be divided into 2 groups randomly:
Vehicle control group and experiment group (TJM2010-5 treatment group), and 20 mice in each group. Where, the TJM2010-5 treatment group is provided with the intragastric administration of TJM2010-5 (0.5% CMC solvent, 25 mg/ml) at the dose of 250 mg/kg (200 μL per mouse); the vehicle control group is provided with the intragastric administration of 0.5% CMC, 200 μL per mouse. Apply the intragastric administration once a day, and for three days successively. And on day 3, after the […], provide the intraperitoneal injection of LPS 1 hour later, then, observe the survival condition every twelve hours, and for three days.

[1] = system: inflammatory factors (IL-1β, TNF-α, IL-6) in graft; assay: real time quantitative PCR of inflammatory factors in graft; type: in vivo, mice
Excerpt: 1. Extract the total RNA from the receptor receiving antigen (homogenic, allogenic) stimulation by the TRIzol method;
2. Reversely transcribe them to cDNA by the two-step method of RT-PCR;
3. Make the standard curve to compare the measured relative level of IL-1β, TNF-α, IL-6.

[2] = system: lymphocyte subpopulation in receptor spleen; assay: lymphocyte subpopulation in receptor spleen by flow cytometry; type: in vivo, mice; conditions: FIG. 5
Excerpt: In vitro experiment: conduct analysis on lymphocyte subpopulation in receptor spleen receiving stimulation of antigen (homogenic, allogeneic), and flow cytometer detection on CD4+CD25+Foxp3+T cell ratio in receptor receiving TJM2010-5 treatment.
1. Take the receptor spleen of different groups (homogenic, allogenic antigenic stimulation), and grind them to separate lymphocyte;
2. Add the IFN-γ labeled by flow antibody APC and IL-17 labeled by APC, CD25 labeled by APC and Foxp3 labeled by PE.
3. Analyze the lymphocyte subpopulation in receptor spleen of various groups, and the CD4+CD25+Foxp3+T cell ratio in receptor receiving TJM2010-5 treatment with flow cytometry.

C57bl/6 mice = assay: BLM (bleomycin) pulmonary inflammation model; type: in vivo
Description: 1. Animal grouping: C57bl/6(B6) NaCl (200 μl nasal drip) group, C57bl/6 (B6) BLM group and TJM2010-5BLM group (provide intraperitoneal injection of TJM2010-5 dissolved in 0.5% CMC of 150 mg/kg/d on day 0-3, 5, 7, 9, 11, 13, 15).
2. Construct pulmonary inflammation model with BLM (bleomycin) nasal drips: conduct airway anesthesia with 40 μl of ketaminexylazine, and administrate BLM sulfate by nasal dripping (300 μg or 15 mg/kg).
3. Collect cell and cytokines with bronchoalveolar lavage fluid (BAL): Cut open the trachea and insert the plastic sleeve; then lavage with 0.3 ml of PBS at 37° C., and withdraw the lavage fluid (the withdrawn fluid is more than 95%), and repeat the process for 10 times. The lavage fluid consists of two parts: one part is used for detection of cytokins (600 g, conduct centrifugation for 10 min, collect and store the supernatant at −80° C. for detection); the other part is used for cell counting (0.4 ml, including substratum, suspension), count at 4° C.
4. Detect cells and factors in tissue with pulmonary homogenate: After BAL, take and grind the whole lung, and conduct centrifugation to take supernatant, then, store it at −80 C° for detection of MPO.
5. Conduct activity detection of pulmonary MPO: Completely lavage the lung with saline passing through right heart, and take pulmonary tissue homogenate, then conduct centrifugation to take supernatant. After that, suspend and precipitate it with 1 ml of PBS (including 0.5% of HTAB, 5 mM of EDTA). Conduct centrifugation, add 50 μl of supernatant into tube (200 μl of PBS-HTAB-EDTA, 2 ml of HBSS, 100 μl of o-dianisidine dihydrochloride (1.25 mg/ml), 100 μl of H2O2 0.05%), and put it into vortex water tank at 37° C. for 15 min. Then, stop the reaction with 100 μl of NaN3 1%, and detect the MPO absorption value with 460 nm.
6. Conduct cell counting: Dye with MG-1L for 4 min, and dye with 95% of GS-500 for 8 min. Then, make smear to count cells.
7. Conduct factor detection: detect the level of IL-6 with ELISA.

## O=C(CCN1CCN(Cc2ccccc2)CC1)Nc1nc(-c2ccccc2)cs1 [TJM2010-5, 3-(4-benzylpiperazin-1-yl)-N-(4-phenylthiazol-2-yl) propanamide]
T cells
  activation of T cells: dose-dependently reduce
GVHD mice; 50 mg/kg/day intragastric since day of irradiation, FIG. 2a-A
  weight vs control group: higher than that of control group
GVHD mice; 50 mg/kg/day intragastric, FIG. 2a-B
  GVHD level vs control group: significantly lower than that of control group
GVHD mice; 50 mg/kg/day intragastric, FIG. 2a-C
  survival rate vs control group: significantly higher than that of control group
GVHD mice; FIG. 2c
  general performances of mice: close to normal mice
GVHD mice; TJM2010-5 alone or combined with MR1
  GVHD reversed: 70%
GVHD mice; each TJM2010 compound combined with MR1, 50 mg/kg/day intragastric, 8 mice per group
  survival rates of the mice after 60 days: 100%
NOD mice
  incidence rate of diabetes mellitus type I: equivalent to that of MyD88KO homozygote group
Mice with endoxemia
  death incurred by endotoxin: effectively delay
  lethality of endotoxin: reduce
[1]; FIG. 9
  level of inflammatory factors (IL-1β, TNF-α, IL-6) in heart graft vs control group: significantly lower than that of control group
[1]; FIG. 9a
  level of IL-1β in graft vs CMC allogeneic transplantation group: significantly lower than those in CMC allogeneic transplantation group
[1]; FIG. 9c
  level of IL-6 in graft vs CMC allogeneic transplantation group: significantly lower than those in CMC allogeneic transplantation group
[2]; receptor spleen lymphocytes
  IFN-γ vs CMC control group: significantly lower than that of CMC control group
  IL-17 vs CMC control group: significantly lower than that of CMC control group
[2]; receptor spleen
  CD4+CD25+Foxp3+T cell ratio in receptor: up-regulated significantly
C57bl/6 mice; 150 mg/kg/d intraperitoneal, FIG. 10b
  recruitment of bronchialveolar neutrophile granulocyte: reduces significantly
C57bl/6 mice; at 24 h, FIG. 11b
  level of IL-6 in lung tissue: reduces
C57bl/6 mice; day 1, 7, 11, FIG. 10a
  total cell numbers in bronchial alveolar vs WT mice: statistical differences
C57bl/6 mice; detection on day 7, FIG. 11a
  MPO factor in lung tissue: reduced
